Source: patent US20130281465A1, “PYRAZOLE DERIVATIVE” (TAISHO PHARMACEUTICAL CO., LTD., priority 2010, published 2013)

Assays:
[1] = molecular target: T1, human orexin type 1 receptor (hOX1R) (Homo sapiens, UniProt O43613); experiment: Orexin receptor antagonistic activity, intracellular Ca2+ fluorescence (FDSS) in CHO cells expressing hOX1R; format: cell-based; conditions: CHO cells forced to express hOX1R; orexin-A analogue peptide ligand 300 pM; Fluo-4 maximum fluorescence; read-out: IC50 value OX1R
T1 construct: expressed in transfected cells; host or cells: Chinese hamster ovary (CHO) cells
T1 sequence (O43613 1-425): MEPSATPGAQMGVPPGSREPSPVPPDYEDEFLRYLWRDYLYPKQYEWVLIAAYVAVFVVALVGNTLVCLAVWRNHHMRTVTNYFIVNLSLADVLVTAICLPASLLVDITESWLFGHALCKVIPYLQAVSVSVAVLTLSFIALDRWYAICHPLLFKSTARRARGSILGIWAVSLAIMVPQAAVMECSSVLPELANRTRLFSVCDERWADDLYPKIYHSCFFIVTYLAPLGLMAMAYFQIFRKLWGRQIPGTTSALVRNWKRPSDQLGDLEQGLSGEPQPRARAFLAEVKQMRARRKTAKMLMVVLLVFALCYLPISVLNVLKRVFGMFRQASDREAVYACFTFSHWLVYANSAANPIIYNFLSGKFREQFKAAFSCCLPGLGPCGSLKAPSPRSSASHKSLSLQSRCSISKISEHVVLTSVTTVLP
Experimental: (§1) The antagonistic activity of each test compound against human orexin type 1 receptor (hOX1R) and orexin type 2 receptor (hOX2R) was performed as described in the literature with a modification (Toshikatsu Okumura et al., Biochemical and Biophysical Research Communications 280, 976-981, 2001). Chinese hamster ovary (CHO) cells forced to express hOX1R or hOX2R were seeded at 20,000 cells/well on a 96 well Black clear bottom plates (Nunc) and cultured for 16 hours under conditions of 37° C. and 5% CO2 using a Ham's F-12 medium containing 0.1 mM MEM non-essential amino acids, 0.5 mg/ml G418, and 10% fetal bovine serum (all from Invitrogen Corp.). After removal of the medium, 100 μL of the assay buffer (25 mM HEPES (Dojindo Laboratories), Hanks' balanced salt solution (Invitrogen Corp.), 0.1% bovine serum albumin, 2.5 mM probenecid, 200 μg/ml Amaranth (all from Sigma-Aldrich Corp.), pH 7.4) containing 0.5 μM Fluo-4AM ester (Dojindo Laboratories) was added thereto, and the cells were incubated for 60 minutes under conditions of 37° C. and 5% CO2. After removal of the buffer solution for assay containing Fluo-4AM ester, the test compound was dissolved at a concentration of 10 mM in dimethyl sulfoxide and diluted with the assay buffer, and 150 μL of the diluted solution was then added to each wells, which were then incubated for 30 minutes.
(§2) A peptide (Pyr-[…]11e-Leu-Thr-Leu-NH2; Peptide Institute, Inc.) substituted 2 amino acids of human orexin-A was diluted with the assay buffer to 300 pM (final concentration for hOX1R) or 3 nM (final concentration for hOX2R). 50 μL of this ligand solution was added thereto to start reaction. During the reaction, the fluorescence value of each well was measured every one second for 3 minutes using Functional Drug Screening System (FDSS; manufactured by Hamamatsu Photonics K.K.), and antagonistic activity was determined with the maximum fluorescence value as an index for intracellular Ca^2+ concentration. The antagonistic activity of the test compound was calculated with the fluorescence value of a well supplemented with only a dilution buffer solution as 100% and the fluorescence value of a well supplemented with a buffer solution containing neither the ligand nor the compound as 0%, and determined in terms of 50% inhibitory concentration (IC50 value) from fluorescence values derived from the test compound added at varying concentrations.

[2] = molecular target: T2, orexin type 2 receptor (hOX2R) (Homo sapiens, UniProt O43614); experiment: Orexin receptor antagonistic activity, intracellular Ca2+ fluorescence (FDSS) in CHO cells expressing hOX2R; format: cell-based; conditions: CHO cells forced to express hOX2R; orexin-A analogue peptide ligand 3 nM; Fluo-4 maximum fluorescence; read-out: IC50 value OX2R
T2 construct: expressed in transfected cells; host or cells: Chinese hamster ovary (CHO) cells
T2 sequence (O43614 1-444): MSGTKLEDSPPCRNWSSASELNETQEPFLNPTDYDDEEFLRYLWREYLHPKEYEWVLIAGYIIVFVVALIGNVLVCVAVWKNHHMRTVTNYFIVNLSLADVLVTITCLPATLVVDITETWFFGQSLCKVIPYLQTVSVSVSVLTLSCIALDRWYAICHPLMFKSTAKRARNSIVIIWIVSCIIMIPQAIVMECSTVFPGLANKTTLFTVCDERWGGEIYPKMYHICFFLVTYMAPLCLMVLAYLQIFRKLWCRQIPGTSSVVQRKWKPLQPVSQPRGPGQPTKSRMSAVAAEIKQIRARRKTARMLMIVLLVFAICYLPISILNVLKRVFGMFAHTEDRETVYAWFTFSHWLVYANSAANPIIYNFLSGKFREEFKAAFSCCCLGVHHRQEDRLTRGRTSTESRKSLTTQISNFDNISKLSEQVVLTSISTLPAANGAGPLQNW
Experimental: as §1, §2

An IC50 [1] of 1.8 nM and an IC50 [2] of 11.7 nM were found for `CCN(CCn1ccc(-c2ccc(F)cn2)n1)C(=O)c1cc(C)ccc1-c1ccccn1` [Example 35, N-ethyl-N-{2-[3-(5-fluoropyridin-2-yl)-1H-pyrazol-1-yl]ethyl}-5-methyl-2-(pyridin-2-yl)benzamide] in this work.
An IC50 [1] of 1.5 nM and an IC50 [2] of 2.2 nM were found for `CCN(CCn1ccc(-c2cccc(C)n2)n1)C(=O)c1cc(C)ccc1-n1nccn1` [Example 39, N-ethyl-5-methyl-N-{2-[3-(6-methylpyridin-2-yl)-1H-pyrazol-1-yl]ethyl}-2-(2H-1,2,3-triazol-2-yl)benzamide] in this work.
An IC50 [1] of 0.9 nM and an IC50 [2] of 8.8 nM were found for `Cc1ccc(-n2nccn2)c(C(=O)N(C)CCn2ccc(-c3ccc(F)cc3)n2)c1` [Example 20-2, N-{2-[3-(4-fluorophenyl)-1H-pyrazol-1-yl]ethyl}-N,5-dimethyl-2-(2H-1,2,3-triazol-2-yl)benzamide] in this work.
An IC50 [1] of 597 nM and an IC50 [2] of 412 nM were found for `Cc1ccc(-n2nccn2)c(C(=O)N(CCn2cc(-c3ccc(F)cn3)cn2)C(C)C)c1` [Example 14, N-{2-[4-(5-fluoropyridin-2-yl)-1H-pyrazol-1-yl]ethyl}-5-methyl-N-(propan-2-yl)-2-(2H-1,2,3-triazol-2-yl)benzamide] in this work.
An IC50 [1] of 6.5 nM and an IC50 [2] of 2.2 nM were found for `CCN(CCn1ccc(-c2ccc(F)cn2)n1)C(=O)c1cc(Cl)ccc1-n1nccn1` [Example 33, 5-Chloro-N-ethyl-N-{2-[3-(5-fluoropyridin-2-yl)-1H-pyrazol-1-yl]ethyl}-2-(2H-1,2,3-triazol-2-yl)benzamide] in this work.
An IC50 [1] of 20 nM and an IC50 [2] of 214 nM were found for `CCN(CCn1ccc(-c2ccc(F)cn2)n1)C(=O)c1cc(OC)ccc1-n1nccn1` [Example 50, N-ethyl-N-{2-[3-(5-fluoropyridin-2-yl)-1H-pyrazol-1-yl]ethyl}-5-methoxy-2-(2H-1,2,3-triazol-2-yl)benzamide] in this work.
An IC50 [1] of 2.3 nM and an IC50 [2] of 6.3 nM were found for `CCN(CCn1cc(-c2ccc(F)cc2)cn1)C(=O)c1cc(C)ccc1-n1nccn1` [Example 7, N-ethyl-N-{2-[4-(4-fluorophenyl)-1H-pyrazol-1-yl]ethyl}-5-methyl-2-(2H-1,2,3-triazol-2-yl)benzamide] in this work.
An IC50 [1] of 1.2 nM and an IC50 [2] of 4 nM were found for `Cc1ccc(-n2nccn2)c(C(=O)N(CCn2ccc(-c3ccc(F)cc3)n2)CC2CC2)c1` [Example 28, N-(cyclopropylmethyl)-N-{2-[3-(4-fluorophenyl)-1H-pyrazol-1-yl]ethyl}-5-methyl-2-(2H-1,2,3-triazol-2-yl)benzamide] in this work.
An IC50 [1] of 110 nM and an IC50 [2] of 301 nM were found for `CCN(CCn1cc(-c2ccc(F)cn2)cn1)C(=O)c1ccccc1-c1ncccn1` [Example 37, N-ethyl-N-{2-[4-(5-fluoropyridin-2-yl)-1H-pyrazol-1-yl]ethyl}-2-(pyrimidin-2-yl)benzamide] in this work.
An IC50 [1] of 10.5 nM and an IC50 [2] of 17.2 nM were found for `CCN(CCn1cc(-c2ccccn2)cn1)C(=O)c1cc(C)ccc1-n1nccn1` [Example 11, N-ethyl-5-methyl-N-{2-[4-(pyridin-2-yl)-1H-pyrazol-1-yl]ethyl}-2-(2H-1,2,3-triazol-2-yl)benzamide] in this work.
An IC50 [1] of 1.5 nM and an IC50 [2] of 6.1 nM were found for `Cc1ccc(-n2nccn2)c(C(=O)N(CCn2ccc(-c3ccccc3)n2)CC2CC2)c1` [Example 29, N-(cyclopropylmethyl)-5-methyl-N-[2-(3-phenyl-1H-pyrazol-1-yl)ethyl]-2-(2H-1,2,3-triazol-2-yl)benzamide] in this work.
An IC50 [1] of 1.4 nM and an IC50 [2] of 3.7 nM were found for `CCN(CCn1ccc(-c2ccc(F)cn2)n1)C(=O)c1cc(C)ccc1-c1ncccn1` [Example 26, N-ethyl-N-{2-[3-(5-fluoropyridin-2-yl)-1H-pyrazol-1-yl]ethyl}-5-methyl-2-(pyrimidin-2-yl)benzamide] in this work.
An IC50 [1] of 8.4 nM and an IC50 [2] of 8.9 nM were found for `CCN(CCn1ccc(-c2ccc(F)cn2)n1)C(=O)c1ccccc1-c1ncccn1` [Example 34, N-ethyl-N-{2-[3-(5-fluoropyridin-2-yl)-1H-pyrazol-1-yl]ethyl}-2-(pyrimidin-2-yl)benzamide] in this work.
An IC50 [1] of 92.5 nM and an IC50 [2] of 149 nM were found for `CCN(CCn1ccc(-c2ccc(F)cn2)n1)C(=O)c1c(F)cccc1-c1ncccn1` [Example 46, N-ethyl-2-fluoro-N-{2-[3-(5-fluoropyridin-2-yl)-1H-pyrazol-1-yl]ethyl}-6-(pyrimidin-2-yl)benzamide] in this work.
An IC50 [1] of 1.9 nM and an IC50 [2] of 5.6 nM were found for `CCN(CCn1ccc(-c2ccc(F)c(F)c2)n1)C(=O)c1ccccc1-c1ncccn1` [Example 59, N-{2-[3-(3,4-difluorophenyl)-1H-pyrazol-1-yl]ethyl}-N-ethyl-2-(pyrimidin-2-yl)benzamide] in this work.
An IC50 [1] of 115 nM and an IC50 [2] of 598 nM were found for `Cc1ccc(-n2nccn2)c(C(=O)NCCn2ccc(-c3ccc(F)cn3)n2)c1` [Example 16, N-{2-[3-(5-fluoropyridin-2-yl)-1H-pyrazol-1-yl]ethyl}-5-methyl-2-(2H-1,2,3-triazol-2-yl)benzamide] in this work.
An IC50 [1] of 0.9 nM and an IC50 [2] of 2.5 nM were found for `CCN(CCn1ccc(-c2ccc(F)cc2)n1)C(=O)c1cc(C)ccc1-n1nccn1` [Example 8, N-ethyl-N-{2-[3-(4-fluorophenyl)-1H-pyrazol-1-yl]ethyl}-5-methyl-2-(2H-1,2,3-triazol-2-yl)benzamide] in this work.
An IC50 [1] of 17.9 nM and an IC50 [2] of 47.3 nM were found for `Cc1ccc(-n2nccn2)c(C(=O)N(C)CCn2cc(-c3ccc(F)cn3)cn2)c1` [Example 2, N-{2-[4-(5-fluoropyridin-2-yl)-1H-pyrazol-1-yl]ethyl}-N,5-dimethyl-2-(2H-1,2,3-triazol-2-yl)benzamide] in this work.
An IC50 [1] of 5.5 nM and an IC50 [2] of 10.3 nM were found for `CCN(CCn1ccc(-c2ccc(F)cn2)n1)C(=O)c1cccc(F)c1-n1nccn1` [Example 48, N-ethyl-3-fluoro-N-{2-[3-(5-fluoropyridin-2-yl)-1H-pyrazol-1-yl]ethyl}-2-(2H-1,2,3-triazol-2-yl)benzamide] in this work.
An IC50 [1] of 9 nM and an IC50 [2] of 6.6 nM were found for `CCN(CCn1ccc(-c2ccc(F)cn2)n1)C(=O)c1ccccc1-n1nccn1` [Example 32, N-ethyl-N-{2-[3-(5-fluoropyridin-2-yl)-1H-pyrazol-1-yl]ethyl}-2-(2H-1,2,3-triazol-2-yl)benzamide] in this work.
An IC50 [1] of 24.9 nM and an IC50 [2] of 26.9 nM were found for `Cc1ccc(-n2nccn2)c(C(=O)N(CCn2ccc(-c3ccc(F)cn3)n2)C2COC2)c1` [Example 31, N-{2-[3-(5-fluoropyridin-2-yl)-1H-pyrazol-1-yl]ethyl}-5-methyl-N-(oxetan-3-yl)-2-(2H-1,2,3-triazol-2-yl)benzamide] in this work.
An IC50 [1] of 17.3 nM and an IC50 [2] of 29.8 nM were found for `CCN(CCn1ccc(-c2ccc(F)cn2)n1)C(=O)c1ccc(F)cc1-n1nccn1` [Example 44, N-ethyl-4-fluoro-N-{2-[3-(5-fluoropyridin-2-yl)-1H-pyrazol-1-yl]ethyl}-2-(2H-1,2,3-triazol-2-yl)benzamide] in this work.
An IC50 [1] of 20.9 nM and an IC50 [2] of 43.6 nM were found for `Cc1ccc(-n2nccn2)c(C(=O)N(CCn2ccc(-c3ccc(F)cn3)n2)C(C)C)c1` [Example 27, N-{2-[3-(5-fluoropyridin-2-yl)-1H-pyrazol-1-yl]ethyl}-5-methyl-N-(propan-2-yl)-2-(2H-1,2,3-triazol-2-yl)benzamide] in this work.
